pIC50: −log10 of the molar value.

For the assay, the system named is MM.1S cells. The assay is described as follows: Inhibitory effect on the proliferation of MM.1S, MTS cell viability test. As to conditions: Homo sapiens, MM1.S, 168 h, multiple myeloma MM.1S cells, 7 days incubation, read-out: Tumor cell inhibitory activity. The format is cell-based. The method in brief: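 Viability measured by MTS (OD490 minus OD690 background, 3-4 h) after a 7-day exposure of 20,000 MM.1S cells/well to 5-fold serially diluted compound, 0.2% DMSO final. Inhibition calculated relative to DMSO wells; IC50 curve-fitted, averaged over three repeats.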
On the technique in general: Tetrazolium dyes change colour on reduction, which living cells bring about.
Take `O=C1CCC(N2Cc3c(OCCCCN4CCC5(CC4)OCc4ccccc45)cccc3C2=O)C(=O)N1` (stereo not drawn) [Example 126, 3-(4-(4-(2H-spiro[benzofuran-3,4′-piperidine]-1′-)butoxy)-1-oxoisoindoline-2-)piperidine-2,6-dione]: the pIC50 was greater than 7.00.
Consider `O=C1CCC(N2Cc3c(CCCCCN4CCC5(CC4)OCc4ccc(Cl)cc45)cccc3C2=O)C(=O)N1` (stereo not drawn) [Example 127], for which the pIC50 was 6.00 to 7.00.
Consider `O=C1CCC(N2Cc3c(OCCCCN4CCC5(CC4)OCc4ccc(F)cc45)cccc3C2=O)C(=O)N1` (stereo not drawn) [Example 128, 3-(4-(4-(6-fluoro-3H-spiro[isobenzofuran-1,4′-piperidine]-1′-)butoxy)-1-oxoisoindoline-2-)piperidine-2,6-dione], for which the pIC50 was greater than 7.00.
Next, `O=C1CCC(N2Cc3c(CCCCCN4CCC5(CC4)OC(=O)c4cc(Cl)ccc45)cccc3C2=O)C(=O)N1` (stereo not drawn) [Example 129, 3-(4-(5-(5-chloro-3-oxo-3H-spiro[isobenzofuran-1,4′-piperidine]-1′-)pentyl)-1-oxoisoindoline-2-)piperidine-2,6-dione]: 6.00 to 7.00; `Cc1ccc2c(c1)C1(CCN(CCCCOc3cccc4c3CN(C3CCC(=O)NC3=O)C4=O)CC1)OC2` (stereo not drawn) [Example 130, 3-(4-(4-(6-methyl-3H-spiro[isobenzofuran-1,4′-piperidine]-1′-)butoxy)-1-oxoisoindoline-2-)piperidine-2,6-dione]: greater than 7.00.
Regarding `O=C1CCC(N2Cc3c(CCCCCN4CCC5(CC4)OC(=O)Nc4ncccc45)cccc3C2=O)C(=O)N1` (stereo not drawn) [Example 131, 3-(1-oxo-4-(5-(2′-oxo-1′,2′-dihydrospiro[piperidine-4,4′-pyrido[2,3-d][1,3)oxazine)-1-)pentyl)isoindoline-2-)piperidine-2,6-dione], the pIC50 is 6.00 to 7.00.
Consider `O=C1CCC(N2Cc3c(OCCCCCN4CCC5(CC4)OCc4ccc(Cl)cc45)cccc3C2=O)C(=O)N1` (stereo not drawn) [Example 132, 3-(4-((5-(6-chloro-3H-spiro[isobenzofuran-1,4-piperidine]-1-)pentyl)oxy)-1-oxoisoindoline-2-)piperidine-2,6-dione], for which the pIC50 is greater than 7.00.
In the case of `O=C1CCC(N2Cc3c(CCCCCN4CCC5(CC4)C(=O)Nc4ccc(Cl)cc45)cccc3C2=O)C(=O)N1` (stereo not drawn) [Example 133, 3-(4-(5-(5-chloro-2-oxospiro[indoline-3,4′-piperidine]-1′-)pentyl)-1-oxoisoindoline-2-)piperidine-2,6-dione] it was greater than 7.00.
With `COc1ccc2c(c1)C1(CCN(CCCCCc3cccc4c3CN(C3CCC(=O)NC3=O)C4=O)CC1)C(=O)N2` (stereo not drawn) [Example 135, 3-(4-(5-(5-methoxy-2-oxospiro[indoline-3,4′-piperidine]-1′-)pentyl)-1-oxoisoindoline-2-)piperidine-2,6-dione], the pIC50 was 6.00 to 7.00.
Consider `O=C1CCC(N2Cc3c(CCCCCN4CCC5(CC4)OCCc4ccccc45)cccc3C2=O)C(=O)N1` (stereo not drawn) [Example 137, 3-(1-oxo-4-(5-(spiro[isochroman-1,4′-piperidine]-1′-)pentyl)isoindoline-2-)piperidine-2,6-dione], for which the pIC50 was 6.00 to 7.00.
Next, `O=C1CCC(N2Cc3c(OCCCN4CCC5(CC4)OCc4ccc(Cl)cc45)cccc3C2=O)C(=O)N1` (stereo not drawn) [Example 138, 3-(4-(3-(6-chloro-3H-spiro[isobenzofuran-1,4′-piperidine]-1′-)propoxy)-1-oxoisoindoline-2-)piperidine-2,6-dione]: greater than 7.00.
As to `O=C1CCC(N2Cc3c(CCCCCN4CCC5(C4)C(=O)Nc4ccccc45)cccc3C2=O)C(=O)N1` (stereo not drawn) [Example 139], the pIC50 is 6.00 to 7.00.
Regarding `Cc1ccc2c(c1)C1(CCN(CCCOc3cccc4c3CN(C3CCC(=O)NC3=O)C4=O)CC1)OC2` (stereo not drawn) [Example 140, 3-(4-(3-(6-methyl-3H-spiro[isobenzofuran-1,4′-piperidine]-1′-)propoxy)-1-oxoisoindoline-2-)piperidine-2,6-dione], the pIC50 is greater than 7.00.
As to `O=C1CCC(N2Cc3c(CCCCCN4CCC5(C=Cc6ccccc65)CC4)cccc3C2=O)C(=O)N1` (stereo not drawn) [Example 141, 3-(1-oxo-4-(5-(spiro[indene-1,4′-piperidine]-1′-)pentyl)isoindoline-2-)piperidine-2,6-dione], the pIC50 is 6.00 to 7.00.
Next, `O=C1CCC(N2Cc3c(OCCCN4CCC5(CC4)OCc4ccc(F)cc45)cccc3C2=O)C(=O)N1` (stereo not drawn) [Example 142, 3-(4-(3-(6-fluoro-3H-spiro[isobenzofuran-1,4′-piperidine]-1′-)propoxy)-1-oxoisoindoline-2-)piperidine-2,6-dione]: 6.00 to 7.00; `O=C1CCC(N2Cc3c(OCCCCCN4CCC5(CC4)OCc4ccc(F)cc45)cccc3C2=O)C(=O)N1` (stereo not drawn) [Example 144, 3-(4-((5-(6-fluoro-3H-spiro[isobenzofuran-1,4-piperidine]-1-)pentyl)oxy)-1-oxoisoindoline-2-)piperidine-2,6-dione]: greater than 7.00.
Regarding `O=C1CCC(N2Cc3c(CCCCCN4CCC5(CC4)COc4ccccc45)cccc3C2=O)C(=O)N1` (stereo not drawn) [Example 145], the pIC50 is 6.00 to 7.00.
In the case of `Cc1ccc2c(c1)C1(CCN(CCCCCOc3cccc4c3CN(C3CCC(=O)NC3=O)C4=O)CC1)OC2` (stereo not drawn) [Example 146, 3-(4-((5-(6-methyl-3H-spiro[isobenzofuran-1,4′-piperidine]-1′-)pentyl)oxy)-1-oxoisoindoline-2-)piperidine-2,6-dione] it was greater than 7.00; in that of `O=C1CCC(N2Cc3c(CCCCCN4CCC5(CC4)C(=O)NCN5c4ccccc4)cccc3C2=O)C(=O)N1` (stereo not drawn) [Example 147, 3-(1-oxo-4-(5-(4-oxo-1-phenyl-1,3,8-triazaspiro[4.5]decane-8-)pentyl)isoindoline-2-)piperidine-2,6-dione], 6.00 to 7.00; in that of `O=C1CCC(N2Cc3c(OCCCCCCN4CCC5(CC4)COc4ccccc45)cccc3C2=O)C(=O)N1` (stereo not drawn) [Example 148, 3-(4-((6-(2H-spiro[benzofuran-3,4′-piperidine]-1′-)hexyl)oxy)-1-oxoisoindoline-2-)piperidine-2,6-dione], greater than 7.00.
In the case of `O=C1CCC(N2Cc3c(CCCCN4CCC5(CC4)OCc4ccccc45)cccc3C2=O)C(=O)N1` (stereo not drawn) [Example 149, 3-(4-(4-(3H-spiro[isobenzofuran-1,4′-piperidine]-1′-)butyl)-1-oxoisoindoline-2-)piperidine-2,6-dione] it was 6.00 to 7.00; in that of `O=C1CCC(N2Cc3c(OCCCCCCN4CCC5(CC4)OCc4ccc(Cl)cc45)cccc3C2=O)C(=O)N1` (stereo not drawn) [Example 150, 3-(4-((6-(6-chloro-3H-spiro[isobenzofuran-1,4′-piperidine]-1′-)hexyl)oxy)-1-oxoisoindoline-2-)piperidine-2,6-dione], greater than 7.00.
In the case of `O=C1CCC(N2Cc3c(CCCCN4CCC5(CC4)OCc4ccc(Cl)cc45)cccc3C2=O)C(=O)N1` (stereo not drawn) [Example 151, 3-(4-(4-(6-chloro-3H-spiro[isobenzofuran-1,4-piperidine]-1-)butyl)-1-oxoisoindoline-2-)piperidine-2,6-dione] it was 6.00 to 7.00.
For the molecule `O=C1CCC(N2Cc3c(OCCCCC(=O)N4CCC5(CC4)OCc4ccc(Cl)cc45)cccc3C2=O)C(=O)N1` (stereo not drawn) [Example 152, 3-(4-((5-(6-chloro-3H-spiro[isobenzofuran-1,4′-piperidine]-1′-)-5-oxopentyl)oxy)-1-oxoisoindoline-2-)piperidine-2,6-dione], the pIC50 was greater than 7.00.
For the molecule `O=C1CCC(N2Cc3c(OCCCC(=O)N4CCC5(CC4)OCc4ccc(Cl)cc45)cccc3C2=O)C(=O)N1` (stereo not drawn) [Example 153], the pIC50 was 6.00 to 7.00.
In the case of `O=C1CCC(N2Cc3c(OCCCCNC(=O)N4CCC5(CC4)OCc4ccc(Cl)cc45)cccc3C2=O)C(=O)N1` (stereo not drawn) [Example 154, 6-chloro-N-(4-((2-(2,6-dioxopiperidine-3-)-1-oxoisoindoline-4-)-oxy-)butyl)-3H-spiro[isobenzofuran-1,4-piperidine]-1-carboxamide], the pIC50 was greater than 7.00.
In the case of `O=C1CCC(N2Cc3c(OCCNC(=O)N4CCC5(CC4)OCc4ccc(Cl)cc45)cccc3C2=O)C(=O)N1` (stereo not drawn) [Example 155, 6-chloro-N-(2-((2-(2,6-dioxopiperidine-3-)-1-oxoisoindoline-4-)oxy)ethyl)-3H-spiro[isobenzofuran-1,4-piperidine]-1-carboxamide] it was greater than 7.00.
Next, `O=C1CCC(N2Cc3c(CCCCCN4CCC5(CC4)OCc4ccc(F)cc45)cccc3C2=O)C(=O)N1` (stereo not drawn) [Example 156, 3-(4-(5-(6-fluoro-3H-spiro[isobenzofuran-1,4′-piperidine]-1′-)pentyl)-1-oxoisoindoline-2-)piperidine-2,6-dione]: greater than 7.00.
In the case of `Cc1ccc2c(c1)C1(CCN(CCCCCc3cccc4c3CN(C3CCC(=O)NC3=O)C4=O)CC1)OC2` (stereo not drawn) [Example 157, 3-(4-(5-(6-methyl-3H-spiro[isobenzofuran-1,4′-piperidine]-1-)pentyl)-1-oxoisoindoline-2-)piperidine-2,6-dione] it was greater than 7.00.
On to `Cc1ccc(NC(=O)CCCCOc2cccc3c2CN(C2CCC(=O)NC2=O)C3=O)cc1Cl` (stereo not drawn) [Example 159, N-(3-chloro-4-methylphenyl)-5-((2-(2,6-dioxopiperidine-3-)-1-oxoisoindoline-4-)oxy)valeramide], for which the pIC50 was greater than 7.00.
In the case of `Cc1ccc(NC(=O)NCCOc2cccc3c2CN(C2CCC(=O)NC2=O)C3=O)cc1Cl` (stereo not drawn) [Example 160, 1-(3-chloro-4-methylphenyl)-3-(2-((2-(2,6-dioxopiperidine-3-)-1-oxoisoindoline-4-)oxy)ethyl)ure] it was greater than 7.00; in that of `Cc1ccc(NC(=O)NCCCCOc2cccc3c2CN(C2CCC(=O)NC2=O)C3=O)cc1Cl` (stereo not drawn) [Example 162, 1-(3-chloro-4-methylphenyl)-3-(4-((2-(2,6-dioxopiperidine-3-)-1-oxoisoindoline-4-)oxy)butyl)urea], greater than 7.00; in that of `O=C1CCC(N2Cc3c(OCCNC(=O)Nc4ccc(Cl)c(Cl)c4)cccc3C2=O)C(=O)N1` (stereo not drawn) [Example 163], 6.00 to 7.00.

The values above are taken from patent US12459921B2, “Isoindoline compound, preparation method, pharmaceutical composition and use thereof” (SHANGHAI INSTITUTE OF MATERIA MEDICA, CHINESE ACADEMY OF …, priority 2018, dated 2025).
